Data taken from publication PMC11952367 (bioRxiv, 2025).
pIC50: −log10 of the molar value.

Columns and labels:
ΔC-TWIK-2 = biological target: T1, ΔC-TWIK-2 (Homo sapiens, UniProt Q9Y257); assay: automated whole-cell patch clamp; assay type: cell-based
T1 sequence (Q9Y257 1-276): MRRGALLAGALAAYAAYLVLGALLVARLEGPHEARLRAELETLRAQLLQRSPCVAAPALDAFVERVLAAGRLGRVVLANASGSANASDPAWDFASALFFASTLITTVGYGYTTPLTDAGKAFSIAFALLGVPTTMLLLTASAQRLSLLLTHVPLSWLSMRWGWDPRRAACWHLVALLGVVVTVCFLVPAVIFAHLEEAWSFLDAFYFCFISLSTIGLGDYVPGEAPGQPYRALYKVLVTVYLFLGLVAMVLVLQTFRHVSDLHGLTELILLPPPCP

TWIK-2 = biological target: T2, TWIK-2 (Homo sapiens, UniProt Q9Y257); assay: automated whole-cell patch clamp, HEK293 GnTI- cells; assay type: cell-based; conditions: inhibition; voltage step to +60 mV from holding -90 mV
T2 sequence (Q9Y257 1-313): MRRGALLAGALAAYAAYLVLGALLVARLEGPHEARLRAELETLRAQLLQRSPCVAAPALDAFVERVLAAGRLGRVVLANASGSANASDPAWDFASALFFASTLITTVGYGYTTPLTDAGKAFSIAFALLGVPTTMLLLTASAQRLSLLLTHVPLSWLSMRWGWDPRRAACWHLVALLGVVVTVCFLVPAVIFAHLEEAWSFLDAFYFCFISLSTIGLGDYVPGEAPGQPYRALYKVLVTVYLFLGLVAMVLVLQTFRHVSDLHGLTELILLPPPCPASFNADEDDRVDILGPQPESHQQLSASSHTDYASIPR

pIC50 (TWIK-2): 5.82
Structure (SMILES): COc1ccccc1C(=O)Nc1cccc(NC(=O)c2cccc(C)c2)c1 [ML365]
percentage inhibition at maximum drug concentration (ΔC-TWIK-2): in ΔC-TWIK-2, we see a significant reduction in percentage inhibition at maximum drug concentration
